Laboratory results published in EP0058890A1, “Antithrombotic compounds” (THE WELLCOME FOUNDATION LIMITED, priority 1981, dated 1982).
Where two headings read alike, the source gives them in different places.

Key:
[1] = test system: platelets; assay: Ex vivo platelet aggregation after oral dosing, arachidonate and collagen (method of Born), guinea pig; format: in vivo; conditions: Cavia porcellus, read-out: dose required to inhibit aggregation rate by 50% (ED50)
Experimental: (§1) b. Ex vivo studies: The aggregation of platelets taken from animals dosed by the oral route with Compound II is inhibited when tested with arachidonate and collagen by the method of Born ((1962) Nature 194, 927, 929). The dose required to inhibit aggregation rate by 50% (ED50) at 1 hour was 5 mg/kg and 10 mg/kg in the guinea pig and rat, respectively. By comparison, the ED50 for aspirin in the guinea pig was 30 mg/kg, while the ED50 for aspirin in the rat was 10 mg/kg. The ED50 for indomethacin was 10 mg/kg and 5 mg/kg in the guinea pig and rat, respectively. In the dog, 10 mg/kg p.o. was an ED50 for as long as 6 hr.

[2] = test system: platelets; assay: Ex vivo platelet aggregation after oral dosing, arachidonate and collagen (method of Born), rat; format: in vivo; conditions: read-out: dose required to inhibit aggregation rate by 50% (ED50)
Experimental: as §1

[3] = test system: dog platelets; assay: Ex vivo platelet aggregation after oral dosing, dog; format: in vivo; conditions: Canis lupus familiaris, for as long as 6 hr
Experimental: as §1

[4] = test system: exudate fluid volume; assay: Carrageenin Pleurisy Assay (Acute); format: in vivo, rat; conditions: 3 h, read-out: 3 hr. ED50 against exudate fluid volume
Text: a. […] In this assay, the 3 hr.

[5] = test system: adjuvant arthritis; assay: Adjuvant Arthritis Assay (Chronic); format: in vivo, rat; conditions: po, 336 h, read-out: ED50, development of adjuvant arthritis
[6] = test system: subplantar injection of trypsin; assay: Modified Trypsin Hyperalgesic Assay; format: in vivo; conditions: drug administration 15 minutes before subplantar trypsin
[7] = test system: gastric damage; format: in vivo; conditions: rat
[8] = test system: gastric erosion; format: in vivo; conditions: guinea pig
[9] = test system: stasis-induced jugular vein thrombosis; assay: Protection against stasis-induced jugular vein thrombosis; format: in vivo; conditions: guinea pig; given 1 hour prior to ligation
Experimental: b. Protection against stasis-induced jugular vein thrombosis: When a 1 cm length of guinea pig jugular vein is ligated in situ, a thrombus forms within 30 min. Six mg/kg p.o. of either Compound II or aspirin given 1 hour prior to ligation protected 50% of the animals from thrombosis.

[10] = test system: Yeast-induced hyperthermia; assay: Yeast-Induced Hyperthermia Assay; format: in vivo, rat

Compound	ED50 ([1]; guinea pig, oral route, at 1 hour, arachidonate and collagen) [mg/kg]	ED50 ([2]; rat, oral route, at 1 hour, arachidonate and collagen) [mg/kg]	ED50 [3] [mg/kg]	ED50 ([4]; rat, oral route) [mg/kg]	ED50 ([5]; rat, by gavage for 14 days) [mg/kg]	ED50 ([6]; read-out: ED50) [mg/kg]	gastric damage ([7]; in vivo, po, 75 mg/kg/day)	gastric damage ([7]; in vivo, po, 150 mg/kg)	gastric damage ([8]; in vivo, po, 100 mg/kg/day)	ED50 ([1]; po, 1 h) [mg/kg]	ED50 ([2]; Rattus norvegicus, po, 1 h) [mg/kg]	dose that protected 50% of the animals from thrombosis [9]	ED50 ([4]; Rattus norvegicus, po) [mg/kg]	ED50 ([5]; Rattus norvegicus) [mg/kg]	ED50 [6]	ED50 ([10]; Rattus norvegicus, po) [mg/kg]	hypothermia ([10]; rat, for Compound II 3-4 hours after dosing)	gastric damage ([7]; single oral dose of 30 mg/kg)	gastric damage ([8]; 100 mg/kg/day p.o. for 3 days)	gastric damage ([7]; single oral dose of 5 mg/kg)
CN(C)CCOc1ccccc1-c1nc(-c2ccccc2)c(-c2ccccc2)[nH]1 [Compound II]	5	10	10	37	294	~50	does not produce gastric damage	does not produce gastric damage	very slight gastric erosion	–	–	–	–	–	–	–	–	–	–	–
CC(=O)Oc1ccccc1C(=O)O [aspirin]	–	–	–	–	–	–	–	–	–	30	10	Six	28	175	inactive	50	does not produce hypothermia	produces ulcers and hemorrhages	severe ulceration and hemorrhage	–
COc1ccc2c(c1)c(CC(=O)O)c(C)n2C(=O)c1ccc(Cl)cc1 [indomethacin]	–	–	–	–	–	–	–	–	–	10	5	–	2	1	inactive	–	–	–	–	produces ulcers
